Experimental data published in ChEMBL document CHEMBL1201862, “PubChem BioAssay data set” (2004).
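Values below derive from 48-hour exposures of cells grown in 96-well plates, with endpoints linearly interpolated between the two concentrations bracketing the appropriate inhibition level. At the GI50, growth is halved.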 Active and inactive are the calls of the source. No stated cut-off is given here; in the data, active = GI50 up to about 1.1 µM and inactive = higher.

Legend:
Assay in all cases: DTP human tumour cell line panel, 48 h
[1] = system: CAKI-1
[2] = system: K562
[3] = system: U-251
[4] = system: SR
[5] = system: HCT-15
[6] = system: UACC-257
[7] = system: RXF 393
[8] = system: SF-295
[9] = system: M14
[10] = system: OVCAR-4
[11] = system: UACC-62
[12] = system: SK-OV-3
[13] = system: RPMI-8226
[14] = system: KM12
[15] = system: A549
[16] = system: MOLT-4
[17] = system: NCI-H226
[18] = system: HT-29
[19] = system: SF-539
[20] = system: UO-31

| SMILES | GI50 [1] | GI50 [2] | GI50 [3] | GI50 [4] | GI50 [5] [µM] | GI50 [6] | GI50 [7] | GI50 [8] | GI50 [9] | GI50 [10] | GI50 [11] | GI50 [12] | GI50 [13] | GI50 [14] | GI50 [15] | GI50 [16] | GI50 [17] | GI50 [18] | GI50 [19] | GI50 [20] |
| --- | --- | --- | --- | --- | --- | --- | --- | --- | --- | --- | --- | --- | --- | --- | --- | --- | --- | --- | --- | --- |
| CCC/C(=N\NC(=O)c1cc2ccccc2cc1O)C(CC)C(=O)CCC(=O)N(Cc1ccccc1)Cc1ccccc1 (stereo not given) | 46 µM (inactive) | 26.2 µM (inactive) | 57 µM (inactive) | 31 µM (inactive) | 38.4 | 36.1 µM (inactive) | 37 µM (inactive) | 33.9 µM (inactive) | 32.7 µM (inactive) | 59 µM (inactive) | 11.2 µM (inactive) | > 100 µM (inactive) | 45.8 µM (inactive) | 96.6 µM (inactive) | 63 µM (inactive) | 30.7 µM (inactive) | 47.3 µM (inactive) | 83.2 µM (inactive) | 48.1 µM (inactive) | 54 µM (inactive) |
| c1ccc2cc(-c3cc(-c4cc(-c5ccc6ccccc6c5)on4)no3)ccc2c1 | > 100 µM (inactive) | > 100 µM (inactive) | > 100 µM (inactive) | 55.7 µM (inactive) | > 100 | > 100 µM (inactive) | > 100 µM (inactive) | > 100 µM (inactive) | > 100 µM (inactive) | > 100 µM (inactive) | > 100 µM (inactive) | > 100 µM (inactive) | > 100 µM (inactive) | > 100 µM (inactive) | > 100 µM (inactive) | 88.9 µM (inactive) | > 100 µM (inactive) | > 100 µM (inactive) | > 100 µM (inactive) | 96.8 µM (inactive) |
| CCN1CCC(O)(c2ccc([N+](=O)[O-])cc2)C(C(=O)c2ccc([N+](=O)[O-])cc2)C1 (stereo not given) | 22.3 µM (inactive) | 36.8 µM (inactive) | 29.2 µM (inactive) | 33 µM (inactive) | 21.3 | 17.9 µM (inactive) | 14.4 µM (inactive) | > 100 µM (inactive) | 18.1 µM (inactive) | 25.9 µM (inactive) | 18.2 µM (inactive) | > 100 µM (inactive) | 3.33 µM (inactive) | 17 µM (inactive) | 69 µM (inactive) | 19.3 µM (inactive) | 26.3 µM (inactive) | 32.1 µM (inactive) | 14.3 µM (inactive) | 17.3 µM (inactive) |
| O=C(/C=C/NC(=O)OCc1ccccc1)OCc1ccccc1 | > 100 µM (inactive) | > 100 µM (inactive) | > 100 µM (inactive) | > 100 µM (inactive) | > 100 | > 100 µM (inactive) | > 100 µM (inactive) | > 100 µM (inactive) | > 100 µM (inactive) | > 100 µM (inactive) | > 100 µM (inactive) | 32.4 µM (inactive) | > 100 µM (inactive) | > 100 µM (inactive) | > 100 µM (inactive) | > 100 µM (inactive) | > 100 µM (inactive) | > 100 µM (inactive) | 64.9 µM (inactive) | 32.5 µM (inactive) |
| CC(C)[Si](OC1=C(C(=O)N(C)c2cccc(Cl)c2)CCCC1)(C(C)C)C(C)C | 13.2 µM (inactive) | 4.94 µM (inactive) | 13.8 µM (inactive) | 9.16 µM (inactive) | 14 | 12.5 µM (inactive) | 3.4 µM (inactive) | 11 µM (inactive) | 15.1 µM (inactive) | 12.7 µM (inactive) | 14.7 µM (inactive) | 16.6 µM (inactive) | 8.73 µM (inactive) | 13.5 µM (inactive) | 4.41 µM (inactive) | 10.4 µM (inactive) | 15.8 µM (inactive) | 15.3 µM (inactive) | 17.3 µM (inactive) | 14.5 µM (inactive) |
| Oc1cc(-n2cccn2)c(O)cc1-n1cccn1 | 23.6 µM (inactive) | 11.2 µM (inactive) | 52.4 µM (inactive) | 12.6 µM (inactive) | 28.8 | 32.1 µM (inactive) | 16.7 µM (inactive) | 37.8 µM (inactive) | 27 µM (inactive) | 19 µM (inactive) | 38.9 µM (inactive) | > 100 µM (inactive) | 15.2 µM (inactive) | 57.7 µM (inactive) | > 86.9 µM (inactive) | 9.55 µM (inactive) | 62.5 µM (inactive) | 23 µM (inactive) | 62.1 µM (inactive) | 23.8 µM (inactive) |
| Cc1nccn1S(=O)(=O)c1ccc(Cl)cc1 | 42 µM (inactive) | 37.8 µM (inactive) | 61.1 µM (inactive) | 38 µM (inactive) | 41.6 | 42.5 µM (inactive) | 52 µM (inactive) | 67.6 µM (inactive) | 41.7 µM (inactive) | 29.5 µM (inactive) | 55.6 µM (inactive) | 87.5 µM (inactive) | 48.6 µM (inactive) | 42.5 µM (inactive) | > 100 µM (inactive) | 56.9 µM (inactive) | 74.8 µM (inactive) | 35 µM (inactive) | 32.7 µM (inactive) | 58.3 µM (inactive) |
| CCOc1cc2c(cc1O)/C(=N\N)C[C@@H]1[C@@H]2CC[C@]2(C)[C@@H](O)CC[C@@H]12 | 5.43 µM (inactive) | 0.42 µM (active) | 3.78 µM (inactive) | 0.333 µM (active) | 1.31 | 7.43 µM (inactive) | 5.75 µM (inactive) | 0.397 µM (active) | 4.8 µM (inactive) | 24.7 µM (inactive) | 0.879 µM (active) | 5.18 µM (inactive) | 4.48 µM (inactive) | 4.71 µM (inactive) | 8.75 µM (inactive) | 4.27 µM (inactive) | 4.76 µM (inactive) | 9.53 µM (inactive) | 3.13 µM (inactive) | 3.96 µM (inactive) |
| Cc1cccc(-n2c(=S)[nH]c3c(sc(=O)n3-c3ccccc3C)c2=O)c1 | > 100 µM (inactive) | > 100 µM (inactive) | > 100 µM (inactive) | > 100 µM (inactive) | > 100 | > 100 µM (inactive) | > 100 µM (inactive) | > 100 µM (inactive) | > 100 µM (inactive) | > 100 µM (inactive) | > 100 µM (inactive) | > 100 µM (inactive) | > 100 µM (inactive) | > 100 µM (inactive) | > 100 µM (inactive) | > 100 µM (inactive) | > 100 µM (inactive) | > 100 µM (inactive) | > 100 µM (inactive) | > 100 µM (inactive) |
| Brc1ccc2c(-c3csc(-c4c[nH]c5cc(Br)ccc45)n3)c[nH]c2c1 | 43.6 µM (inactive) | 4.75 µM (inactive) | 15.8 µM (inactive) | 5.61 µM (inactive) | 12.4 | > 65.9 µM (inactive) | 23.4 µM (inactive) | 9.31 µM (inactive) | 17.7 µM (inactive) | 31 µM (inactive) | 40.5 µM (inactive) | 18.5 µM (inactive) | 17.6 µM (inactive) | 11.8 µM (inactive) | 19.5 µM (inactive) | 12.1 µM (inactive) | 30.5 µM (inactive) | 15.8 µM (inactive) | 19.6 µM (inactive) | 55.3 µM (inactive) |
| O=C1Nc2c(Cl)cccc2/C1=N/Nc1ccccc1[N+](=O)[O-] | 11.7 µM (inactive) | 36.9 µM (inactive) | 14.2 µM (inactive) | 4.68 µM (inactive) | 29.9 | 22.4 µM (inactive) | 31.9 µM (inactive) | 9.02 µM (inactive) | 21.7 µM (inactive) | 8.81 µM (inactive) | 17.5 µM (inactive) | 18.8 µM (inactive) | 25 µM (inactive) | 8.89 µM (inactive) | 21.8 µM (inactive) | 31.3 µM (inactive) | 36.1 µM (inactive) | 12.5 µM (inactive) | 16.7 µM (inactive) | 22.1 µM (inactive) |
| NS(=O)(=O)c1ccc(NC2(C(=O)O)CCCC2)cc1 | > 100 µM (inactive) | > 100 µM (inactive) | > 100 µM (inactive) | > 100 µM (inactive) | > 100 | > 100 µM (inactive) | > 100 µM (inactive) | > 100 µM (inactive) | > 100 µM (inactive) | > 100 µM (inactive) | > 100 µM (inactive) | > 100 µM (inactive) | > 100 µM (inactive) | > 100 µM (inactive) | > 100 µM (inactive) | > 100 µM (inactive) | > 100 µM (inactive) | > 100 µM (inactive) | > 100 µM (inactive) | > 100 µM (inactive) |
| CC1(C)OC(=O)C(c2ccsc2)C(=O)O1 | > 100 µM (inactive) | > 100 µM (inactive) | > 100 µM (inactive) | > 100 µM (inactive) | > 100 | > 100 µM (inactive) | > 100 µM (inactive) | > 100 µM (inactive) | > 100 µM (inactive) | > 100 µM (inactive) | > 100 µM (inactive) | > 100 µM (inactive) | > 100 µM (inactive) | > 100 µM (inactive) | > 100 µM (inactive) | > 100 µM (inactive) | > 100 µM (inactive) | > 100 µM (inactive) | > 100 µM (inactive) | > 100 µM (inactive) |
| N#Cc1cnn2ccn(C3OC(COC(=O)c4ccccc4)C(OC(=O)c4ccccc4)C3OC(=O)c3ccccc3)c12 (stereo not given) | 17.2 µM (inactive) | > 21.5 µM (inactive) | > 21.5 µM (inactive) | > 31.6 µM (inactive) | > 21.5 | > 21.5 µM (inactive) | > 21.5 µM (inactive) | > 21.5 µM (inactive) | > 21.5 µM (inactive) | > 21.5 µM (inactive) | > 21.5 µM (inactive) | > 21.5 µM (inactive) | > 21.5 µM (inactive) | 17.3 µM (inactive) | > 21.5 µM (inactive) | > 21.5 µM (inactive) | > 21.5 µM (inactive) | > 21.5 µM (inactive) | > 21.5 µM (inactive) | > 21.5 µM (inactive) |
